Results as given in US6670345B1 (Dabur Research Foundation, priority 1997, dated 2003).
≈ marks a conversion by molar mass, not a printed value.

Columns and labels:
Settings in all cases: 72 hours
leukemia cells (MOLT-4) = assay: MTT cytotoxicity assay, leukemia cells (MOLT-4); assay type: cell-based, human
Procedure: (§1) After 72 hours, the assay was terminated and percent cyotoxicities calculated.

lymphoma cells (U937) = assay: MTT cytotoxicity assay, lymphoma cells (U937); assay type: cell-based, human
Procedure: as §1

human prostate (DU145) = assay: MTT cytotoxicity assay, human prostate (DU145); assay type: cell-based
Procedure: as §1

human colon (HT29) = assay: MTT cytotoxicity assay, human colon (HT29); assay type: cell-based
Procedure: as §1

human larynx (HeP.2) = assay: MTT cytotoxicity assay, human larynx (HeP.2); assay type: cell-based
Procedure: as §1

human lung (L132) = assay: MTT cytotoxicity assay, human lung (L132); assay type: cell-based
Procedure: as §1

[1] = system: ovarian cancer cells (PA-1); assay: MTT cytotoxicity assay, ovarian cancer cells (PA-1); assay type: cell-based, human
Procedure: as §1

Compound: C=C(C)[C@@H]1CC[C@]2(C(=O)O)CC[C@]3(C)[C@H](CC[C@@H]4[C@@]5(C)CC[C@H](O)C(C)(C)[C@@H]5CC[C@]43C)[C@@H]12 [BA]
- ED50 Leukemia MOLT-4 (leukemia cells (MOLT-4)): 1.9 µg/mL (≈ 4.16 µM)
- ED50 Lymphoma U937 (lymphoma cells (U937)): 0.7 µg/mL (≈ 1.53 µM)
- ED50 Prostate DU 145 (human prostate (DU145)): >10 µg/mL
- ED50 Colon HT-29 (human colon (HT29)): 1.8 µg/mL (≈ 3.94 µM)
- ED50 Larynx Hep. 2 (human larynx (HeP.2)): >10 µg/mL
- ED50 Lung L 132 (human lung (L132)): 3.2 µg/mL (≈ 7.01 µM)
- ED50 Ovary PA-I [1]: 17 µg/mL (≈ 37.2 µM)

Compound: C=C(C)C1CCC2(C(=O)O)CCC3(C)C(CCC4C5(C)CCC(OC(=O)c6ccccc6C(F)(F)F)C(C)(C)C5CCC43C)C12 (centres unmarked) [Derivative 942]
- ED50 Leukemia MOLT-4 (leukemia cells (MOLT-4)): 0.5 µg/mL (≈ 0.795 µM)
- ED50 Lymphoma U937 (lymphoma cells (U937)): 2.2 µg/mL (≈ 3.5 µM)
- ED50 Prostate DU 145 (human prostate (DU145)): >10 µg/mL
- ED50 Colon HT-29 (human colon (HT29)): >10 µg/mL
- ED50 Larynx Hep. 2 (human larynx (HeP.2)): 10.0 µg/mL (≈ 15.9 µM)
- ED50 Lung L 132 (human lung (L132)): 4.0 µg/mL (≈ 6.36 µM)
- ED50 Ovary PA-I [1]: >4.0 µg/mL
